{"source": "patent US7989212B2", "about": "“Detection of blood plasma schizadrin B of dissipating blood stasis botanical” (Shanghai Sundise, priority 2007, dated 2011)", "test": "UPLC/MS detection of schizadrin B in blood plasma after administration of strengthening body resistance and dissipating blood stasis botanical", "assay_type": "in vivo", "conditions": "plasma of mammals after drenching with the botanical; FIG. 1: rat plasma 0.5 hours after administration; ethyl acetate extraction, UPLC/MS positive ion mode", "experimental": "Detection method of blood plasma schizadrin B of strengthening body resistance and dissipating blood stasis botanical includes the following steps: • (1) Pretreatment of mammalian plasma samples • a. Mammal plasma containing drugs after being administered the strengthening body resistance and dissipating blood stasis botanical was extracted with ethyl acetate at the volume ratio of 1:4, whirling for 3 to 5 min, then centrifuging at 9600 rpm for 10 min; and drying and enriching the supernatant under the condition of 25 to 30° C.; • b. Redissolve eluent with mobile phase and then analyze it with UPLC/MS; • (2) UPLC/MS detection\nUPLC condition: chromatographic column: ACQUITY UPLC BEH C18 (a type of chromatographic column), 2.1×100 mm, mobile phase A: Water-Acetonitrile-Formic acid 95:5:0.1 v/v/v, mobile phase B: Acetonitrile-Formic acid 100:0.1 v/v; MS condition: electrospray ionization (ESI) ion source, detection with positive ion mode, scanning at the range of m/z 150 to 1200.\nThe described step (2) detects with the positive ion mode; the desolvation gas flow is 440 L/h, the desolvation gas temperature is 300° C., the cone gas flow is 50 L/h, the ion source temperature is 100° C., the spray capillary voltage is 3800 V, the sampling cone voltage is 30V, the extracting cone voltage is 2.00 V, the lens voltage is 0.1 V, and the mass scanning at the range of m/z 150 to 1200.\n1. […]", "data": [{"smiles": "COc1cc2c(c(OC)c1OC)-c1c(cc3c(c1OC)OCO3)CC(C)C(C)C2", "note": "(stereo not shown) [Schizadrin B]", "values": [{"measurement": "detection of schizadrin B in blood plasma", "value": "can be detected"}]}]}
